Test results taken from US20080039431A1, “Method of improving plant growth by reducing viral infections” (priority 2006, published 2008).

Columns and labels:
[1] = tested on: tomato spotted wilt virus (TSWV); experiment: Tobacco drench / broadcast spray trial (Example 8); format: in vivo, tobacco (Nicotiana tabacum); conditions: acibenzolar-S-methyl 2.47 g ai/Ha broadcast spray
Excerpt: Cultivation—A trial on tobacco (Nicotiana tabacum) was initiated in Molino, Fla., to see if drenches of prothioconazole alone and in combination with the insecticide imidacloprid could control TSWV in tobacco. Plants of cultivar C-371 Gold were transplanted on April 28 into 9.1 meter plots with three replications. All eight treatments were applied after transplanting on May 1. Foliar treatments were applied as a broadcast spray, while drenches were applied as in Example 6. Acibenzolar-S-methyl is a plant defense activator used to control TSWV in tobacco.
Treatments— • Untreated • Imidacloprid@0.01 g imidacloprid/plant • Imidacloprid@0.015 g Imidacloprid/plant • Prothioconazole@0.0084 g active ingredient/plant • Prothioconazole@0.0084 g active ingredient/plant+Imidacloprid@0.01 g imidacloprid/plant • Prothioconazole@0.0084 g active ingredient/plant+Imidacloprid@0.015 g […] label. • Acibenzolar-S-methyl@2.47 g active ingredient/Ha as a broadcast spray as per label.
TSWV rating—For TSWV incidence determination the percentage of plants with TSWV symptoms (chlorosis and stunting) was determined for the eight treatments as in Example 6.

[2] = tested on: tomato spotted wilt virus (TSWV); experiment: Replicated tomato drench trial (Example 6); format: in vivo, tomato (Lycopersicon esculentum MILL.); conditions: prothioconazole 0.0084 g ai/plant, imidacloprid 0.01 g/plant; for Percent control of incidence of TSWV in tomatoes: Abbott's formula; for Percent incidence of TSWV in tomatoes: drench
Method: Cultivation—A replicated trial on tomato (Lycopersicon esculentum MILL.) was initiated in Molino, Fla. to determine if drenches of prothioconazole alone and in combination with the insecticide imidacloprid would suppress TSWV in tomato. Tomato plants, cultivar FL 47 were transplanted on April 11 into 4 rows, each 9.1 meters long, 60 plants per plot, with three replications. Treatments were applied, into a shallow bowl dug at the base of each plant, as a drench in 40 ml water per plant (6 days after transplanting) on April 17. Treatments— • Untreated—no in-furrow treatment • Imidacloprid@0.01 g imidacloprid/plant. • Prothioconazole—prothioconazole@0.0084 g active ingredient/plant. • Prothioconazole+Imidacloprid—prothioconazole@0.0084 g active ingredient/plant+imidacloprid@0.01 g imidacloprid/plant. TSWV rating—University researchers recommend buffers in TSWV testing. Therefore, the center two rows (30 plants) per plot were used for virus ratings with the outer two rows acting as buffers. TSWV incidence determinations were made based on the presence or absence of TSWV symptoms (chlorosis and stunting) per plant. The four treatments were rated at 21, 29, and 39 days after treatment. Synergy formula—The Colby formula for proof of synergy was used in Example 6. The percent incidence values were converted to percent control with Abbotts's formula (1-treated/untreated)*100. Percent control values for solo treatment X and solo treatment Y, were entered into the Colby formula. When the value determined from the plots with both treatment X and Y applied together is greater than the value determined by the Colby formula then synergy is indicated. The formula is: X+Y−(X*Y/100).

[3] = tested on: tomato spotted wilt virus (TSWV); experiment: Bell pepper drench trial (Example 7); format: in vivo, bell pepper (Capsicum annum L.); conditions: for Percent control of incidence of TSWV in bell peppers: Abbott's formula; for Percent incidence TSWV in bell peppers: drench, prothioconazole 0.0084 g ai/plant, imidacloprid 0.01 g/plant
Method: Cultivation—A trial on bell pepper (Capsicum annum L.) was initiated in Molino, Fla. to see if drenches of prothioconazole alone and in combination with the insecticide imidacloprid could control TSWV in pepper. Bell pepper plants were transplanted on April 11 into 9.1 meter plots with three replications as in Example 6. Treatments were applied as a drench in 40 ml water per plant (7 days after transplanting) on April 18 as in Example 6.
Treatments— • Untreated—no in-furrow treatment. • Imidacloprid—imidacloprid@0.01 g imidacloprid/plant. • Prothioconazole—prothioconazole@0.0084 g prothioconazole/plant. • Prothioconazole+Imidacloprid—prothioconazole@0.0084 g active ingredient/plant+imidacloprid@0.01 g imidacloprid/plant.
TSWV rating—For TSWV incidence determination, the percentage of plants with TSWV symptoms (chlorosis and stunting) was determined for the four treatments at 21, 29, 38, and 47 days after treatment as in Example 6.
Synergy formula—The Colby formula for proof of synergy was used in Example 7 as in Example 6.

[4] = 14 days after treatment, prothioconazole 0.0084 g ai/plant, imidacloprid 0.01 g/plant (drench)
[5] = 21 days after treatment, prothioconazole 0.0084 g ai/plant, imidacloprid 0.01 g/plant (drench)
[6] = 38 days after treatment, prothioconazole 0.0084 g ai/plant, imidacloprid 0.01 g/plant (drench)

`O=[N+]([O-])NC1=NCCN1Cc1ccc(Cl)nc1` [Imidacloprid, imidacloprid] was tested, and the “Percent incidence TSWV in tobacco” value ([1]; 14 days after treatment, imidacloprid 0.015 g/plant, prothioconazole 0.0084 g ai/plant (drench)) was 23.9%, the “Percent incidence TSWV in tobacco” value [1, 4] was 23.9% and the “Percent incidence TSWV in tobacco” value ([1]; 21 days after treatment, imidacloprid 0.015 g/plant, prothioconazole 0.0084 g ai/plant (drench)) was 25.5%. The “Percent incidence TSWV in tobacco” value [1, 5] was 24.4%, the “Percent incidence TSWV in tobacco” value ([1]; 38 days after treatment, imidacloprid 0.015 g/plant, prothioconazole 0.0084 g ai/plant (drench)) was 45.5% and the “Percent incidence TSWV in tobacco” value [1, 6] was 45.0%. For the same molecule, the “Percent control of incidence of TSWV in tomatoes” value (“Percent control … in tomatoes” below) ([2]; 21 days after treatment) was 65.07%, the “Percent incidence of TSWV in tomatoes” value ([2]; 21 days after treatment) was 10.2% and the “Percent control … in tomatoes” value ([2]; 29 days after treatment) was 50.52%. The “Percent incidence of TSWV in tomatoes” value ([2]; 29 days after treatment) was 33.4%, the “Percent control … in tomatoes” value ([2]; 39 days after treatment) was 41.30% and the “Percent incidence of TSWV in tomatoes” value ([2]; 39 days after treatment) was 49.6%. The “Percent control of incidence of TSWV in bell peppers” value (shortened to “Percent control … in bell peppers”) ([3]; 21 days after treatment) was 26.14%, the “Percent incidence TSWV in bell peppers” value ([3]; 21 days after treatment) was 17.8% and the “Percent control … in bell peppers” value ([3]; 29 days after treatment) was 45.84%. For the same molecule, the “Percent incidence TSWV in bell peppers” value ([3]; 29 days after treatment) was 25.4%, the “Percent control … in bell peppers” value ([3]; 38 days after treatment) was 25.49% and the “Percent incidence TSWV in bell peppers” value ([3]; 38 days after treatment) was 38.3%. For the same molecule, the “Percent control … in bell peppers” value ([3]; 47 days after treatment) was 19.32%, the “Percent incidence TSWV in bell peppers” value ([3]; 47 days after treatment) was 42.6% and the “Increase of TSWV level from 38 DAT to 47 DAT” value ([3]; bell pepper, untreated increased by 1.4 percent) was “roughly 4.5%”.

In the case of `CSC(=O)c1cccc2nnsc12` [acibenzolar-S-methyl], the “Percent incidence TSWV in tobacco” value [1, 4] is reported as 36.7%, the “Percent incidence TSWV in tobacco” value [1, 5] is reported as 46.7% and the “Percent incidence TSWV in tobacco” value [1, 6] is reported as 53.9%.
